No end group written: not given here.
Columns and labels:
[1] = system: BCMA-specific T-ChARM T cells co-cultured with K562/BCMA+ cells; experiment: Effect of exogenous soluble BCMA / BCMA-Fc on BCMA-specific T-ChARM T cell function; type: cell-based, human
Experimental: (H) IFN-γ production by BCMA-specific T-ChARM T cells in the presence of exogenous soluble BCMA. sBCMA was added to co-cultures of T cells expressing a BCMA-specific T-ChARM and K562 cells transduced with a polynucleotide encoding full-length BCMA (K562/BCMA^+).
(I) Data from another dose-titration experiment showing the effect of sBCMA on IFN-γ production by BCMA-specific T-ChARM T cells recognizing K562 BCMA^+ cells, which included adding sBCMA to culture at another, higher concentration (5000 ng/mL).
(N) Flow cytometry data showing IFN-γ production (y-axis) and CD4 expression (x-axis) by T cells expressing either a C113ST-ChARM (“C113ST”) of this disclosure or a control anti-CD19 CAR (“[…]”), in co-culture with target-expressing K562 cells and administered the BCMA-Fc fusion protein (left panels: 0 ng/ml BCMA-Fc; right panels: 1000 ng/ml BCMA-Fc.
(O) Dose titration showing IFN-γ release by CAR T cells in response to target cell lines as indicated in the presence or absence of exogenous recombinant BCMA (BCMA-Fc fusion). FMC63 (anti-CD19) vs. K562 CD19^+ (control; downward-facing triangle); C113ST T-ChARM T cells vs. RPMI 8226 (upward-facing triangle), U266 (square), and K562 BCMA^+ cells (circle). Data is representative of 2 independent experiments. Bars represent mean+SEM. P-value=<0.05, as determined by one-way ANOVA with post-test. MFI=mean fluorescence intensity.
(P) IFN-γ production (normalized Mean Fluorescence Intensity, MFI) by the T cells shown in FIG. 2O in co-culture with indicated antigen-expressing cells and in the presence or absence of BCMA-Fc (x-axis).
(Q) Cytolytic activity of CD8^+ C113ST T-ChARM T cells against K562 BCMA^+ target cells and of FMC63 CAR-T cells against K562 CD19^+ target cells at varying concentrations of recombinant BCMA, analyzed by a 4 h CRA at E:T ratio of 10:1. Data is representative of 2 independent experiments. Bars represent mean+SEM. P-value=<0.05, as determined by one way ANOVA with post-test. MFI=mean fluorescence intensity.
The effect of sBCMA was examined as well by adding sBCMA to co-cultures of T cells expressing a BCMA-specific T-ChARM and K562 cells transduced with a polynucleotide encoding full-length BCMA (K562/BCMA^+).

C113ST T-ChARM T cells = experiment: sBCMA binding to T-ChARM T cells (BCMA-Fc-APC staining after incubation with recombinant BCMA); design: species or system human; conditions: increasing levels of recombinant BCMA
Experimental: (L) sBCMA binding to C113ST-ChARM T cells of this disclosure. T cells were incubated with the indicated levels of recombinant sBCMA (right side of diagram) and then stained with a BCMA-Fc fusion that was conjugated to APC.
To examine whether high levels of sBCMA might inhibit the activity of BCMA-specific T-ChARM T cells, patient bone marrow (BM) sera were examined for sBCMA levels. […] To test whether sBCMA would bind to the T-ChARM T cells, the T cells were incubated with increasing levels of recombinant BCMA and then stained using BCMA-Fc conjugated to APC.

## sBCMA: exogenous soluble / recombinant BCMA not fused to Fc (MLQMAGQCSQNEYFDSLLHACIPCQLRCSSNTPPLTCQRYCNASVTNSVKGTNA)
[1]; exogenous sBCMA added to co-culture with K562/BCMA+
  T-ChARM T cell effector function (IFN-γ release): dose-dependent inhibition
[1]; recombinant BCMA not fused to Fc
  IFN-γ production by T-ChARM T cells: inhibited IFN-γ production in a dose-dependent fashion
[1]; recombinant BCMA not fused to Fc, 4 h CRA, E:T 10:1
  lysis of K562 BCMA+ cells by T-ChARM T cells: did not inhibit lysis
C113ST T-ChARM T cells
  BCMA-Fc-APC staining of T-ChARM T cells: staining decreased

## BCMA-Fc: recombinant BCMA-Fc fusion protein (MLQMAGQCSQNEYFDSLLHACIPCQLRCSSNTPPLTCQRYCNASVTNSVKGTNA; not fully specified; cysteine pairing not given here; also: fused to dimerising Fc or GST (not given here))
[1]; BCMA-Fc added to co-cultures
  recognition (IFN-γ production and CD4 expression) by BCMA-targeting T-ChARM T cells: much-reduced recognition
[1]; BCMA-Fc added, K562 cells expressing CD19
  recognition by control anti-CD19 CAR T cells: but not by control anti-CD19 CAR T cells
[1]; BCMA-Fc titration
  dose dependence of effect on BCMA T-ChARM T cells: dose-dependent

— patent US11845803B2, “Combination therapies for treatment of BCMA-related cancers and autoimmune disorders” (Fred Hutchinson Cancer Center, priority 2017, dated 2023)
